Data: publication PMC12040169 (PLOS Biology, 2025)

Test: in vitro
Settings: human, hela cells, % viability

| SMILES | viability at 28.5 h, 10 µM [%] | viability at 28.5 h, 10 µM (bulk resorufin, single well) [%] |
| --- | --- | --- |
| COc1ccc(-c2cnc(NCC3CC3)c(C(=O)N(C)CCN(C)C)c2)cc1 [CBK076338] | 90.5 |  |
| CNS(=O)(=O)c1ccc(NC(=O)Nc2ccc([N+](=O)[O-])cc2OC)cc1 [CBK266939] | 93.1 |  |
| COc1cc(CNn2cnnc2S)ccc1OCC(N)=O [CBK265877] | 90 |  |
| CCOC(=O)C(CNC(=O)CNC(=O)c1ccoc1)Cc1ccccc1 (centres unmarked) [CBK305971] | 92.4 |  |
| COc1cc(C2(O)CCN(Cc3ccccc3)C2)ccc1OCc1ccccc1 (centres unmarked) [CBK045620] | 95.9 |  |
| Cn1c(C(=O)NCCc2ccc(S(=O)(=O)NC(=O)NC3CCCCC3)cc2)cc2ccccc21 [CBK011876] | 128 |  |
| COc1ccc(S(=O)(=O)N(C)CC(=O)O)c2ccccc12 [CBK268459] | 105 |  |
| Cc1cc(Cl)c(S(=O)(=O)N2CC(C)OC(C)C2)cc1OCC(N)=O (centres unmarked) [CBK266452] | 109 |  |
| CCOC(=O)NC(Nn1cnnc1)(C(F)(F)F)C(F)(F)F [CBK261344] | 117 |  |
| COc1ccc([C@@]23CC[C@@H](NC(=O)c4ccc5occc5c4)C[C@@H]2N(C)CC3)cc1OC [CBK074253T] | 99 |  |
| Cn1ccnc1C(NC(=O)c1ccccn1)c1ccc(F)c(F)c1 (centres unmarked) [CBK283783] | 91.6 |  |
| O=[N+]([O-])c1ccc(OC/C=C2\Oc3ccc([N+](=O)[O-])cc3C2N2CCOCC2)cc1 (centres unmarked) [CBK262743] |  | 91.8 |
| CC(Sc1nc(N(C)C)nc(N2CCOCC2)n1)C(=O)Nc1ccc(Cl)c(Cl)c1 (centres unmarked) [CBK269229] | 110 |  |
| COc1ccccc1CN1CC[C@H]2NC(=O)CNC(=O)C3(C/C=C/C[C@H]2C1)CCN(C(C)=O)CC3 [CBK292107] | 111 |  |
| O=C1CCCN1CC(=O)N1CCCC1c1nc2ccccc2[nH]1 (centres unmarked) [CBK282315] | 86.3 |  |
| O=C(NC1CC2(CCOCC2)Oc2ccccc21)c1cccs1 (centres unmarked) [CBK285377] | 85.6 |  |
| COc1ccc(CCC(=O)Nc2ncccc2OCCCC#N)cc1 [CBK304957] | 105 |  |
| C/C(=N\OCC(=O)N(Cc1ccccc1)c1ccccc1C(=O)O)c1cccs1 [CBK077414] | 94.2 |  |
| O=C(Cn1cnc2c(cnn2-c2cccc(Cl)c2)c1=O)N1CCCCC1 [CBK287691] | 83.3 |  |
| COc1ccc(C(=O)N2CCN(C)CC2)cc1Nc1cncc(-c2cc3ccccc3o2)n1 [CBK155266T] | 89.9 |  |
| O=C(COc1ccc2ccccc2c1)N1CCN(S(=O)(=O)c2ccccc2[N+](=O)[O-])CC1 [CBK264271] | 91.8 |  |
| Cc1oc(CSc2nnc(NCc3ccc(F)cc3)s2)cc1C(=O)O [CBK296629] | 91.6 |  |

| SMILES | viability at 28.5 h, 10 µM [%] | viability at 28.5 h, 10 µM (bulk resorufin, single well) [%] |
| --- | --- | --- |
| CNC(=O)c1ccc(-c2ccc(CNC(=O)C3(c4cccc(F)c4)CCCC3)cc2)nc1C [CBK286013] | 105 |  |
| CCN1CCC(NCc2ccc(OCC(N)=O)cc2)CC1 [CBK306106] | 85.9 |  |
| Cc1ccc(-c2nc3ccccc3c(=O)o2)cc1C [CBK288137] | 97.4 |  |
| CCC(Sc1nc(O)cc(-c2ccccc2)n1)C(=O)O (centres unmarked) [CBK287135] | 87.8 |  |
| CCN1CCCN(c2ccc(-n3ccc(C)n3)nn2)CC1 [CBK306297] | 108 |  |
| O=S(=O)([O-])CCC[n+]1c(/C=C/Nc2ccccc2)oc2ccc3ccccc3c21 [CBK261082] | 114 |  |
| COc1ccc(C(C)C)cc1-c1cnc2nc(NS(C)(=O)=O)ccc2c1 [CBK085672] | 102 |  |
| CN(C)CC1CCCCN1C(=O)[C@@H]1C[C@@H]2C=C[C@H]1C2 (some centres unmarked) [CBK282086] | 105 |  |
| Cc1c(Nc2cnn(C34CC5CC(CC(CC(=O)O)(C5)C3)C4)c(=O)c2Cl)c(=O)n(-c2ccccc2)n1C [CBK268707] | 89 |  |
| Cc1cccc(OC(C)C(=O)Nc2ccc(S(=O)(=O)N3CCOCC3)cc2)c1 (centres unmarked) [CBK269609] | 106 |  |
| Cc1cccc(NC2=NC(=O)/C(=C\c3ccc(Cl)cc3)S2)c1C [CBK263619] | 101 |  |
| CN(CCN1CCCCC1)C(=O)C1Cc2cc(Cl)ccc2O1 (centres unmarked) [CBK282640] | 95.4 |  |
| O=C(O)Cc1ccc(OCC(=O)NCc2ccc(Cl)cc2Cl)cc1 [CBK296628] | 109 |  |
| Cc1cc(C)cc(Nc2cc(C)n3c(=O)[nH]nc3n2)c1 [CBK288380] | 91.8 |  |
| O=[N+]([O-])c1ccc(Cl)cc1N/N=C1\CN2CCC1CC2 [CBK217272] | 108 |  |
| COc1ccc(Cl)cc1NC(=O)CCCn1cnc([N+](=O)[O-])n1 [CBK268882] | 83.2 |  |
| O=C(OCCc1ccncc1)N1CCC(F)(F)CC1 [CBK200158] | 105 |  |
| OCc1ccccc1-c1cncc(N2CCN(c3ccncc3)CC2)n1 [CBK065208] | 113 |  |
| O=C(NCc1ccccc1)C1CCCN(c2ncnc3[nH]cnc23)C1 (centres unmarked) [CBK287916] | 91.4 |  |
| CC(C)Cn1cncc1CNS(=O)(=O)c1cccc(C(=O)N2CCC2)c1 [CBK307068] | 90.3 |  |
| Cc1ccc(C2N(Cc3ccccc3)CCN2Cc2ccccc2)o1 [CBK260883] | 98.3 |  |
| Cc1noc(C)c1S(=O)(=O)Nc1cc(C(F)(F)F)ccc1N1CCOCC1 [CBK062545] | 90.4 |  |

| SMILES | viability at 28.5 h, 10 µM [%] | viability at 28.5 h, 10 µM (bulk resorufin, single well) [%] |
| --- | --- | --- |
| Cc1oc(C(C)(C)C)cc1C(=O)Nc1ccc(C(F)(F)F)cc1 [CBK057251] | 87 |  |
| COc1ccc(S(=O)(=O)N2CCN(Cc3cc(OC)c(OC)c(OC)c3)CC2)cc1 [CBK263330] | 89.3 |  |
| Cc1cc(C)n(-c2ccccc2O)n1 [CBK026493] | 102 |  |
| Cn1ncnc1CNc1ccc(S(=O)(=O)N2CCCCCC2)cc1 [CBK305278] | 90.1 |  |
| CCc1ccc(-c2csc(NC(=O)CN3C(=O)CCC3=O)n2)cc1 [CBK287347] | 90.3 |  |
| CC(C)c1cccc2c1OC(C(C)C)C(=O)N2 (centres unmarked) [CBK009286] | 85.2 |  |
| CN(C)CCN1CCN(c2cncc(-c3cccc(C(=O)O)c3)n2)CC1 [CBK065443] | 104 |  |
| Cc1ccc2cc(S(=O)(=O)NCCC(=O)O)ccc2c1 [CBK267569] | 96.5 |  |
| CN(C)CCN1C(=O)C(O)=C(C(=O)c2ccc(S(=O)(=O)N(C)C)cc2)C1c1cccnc1 (centres unmarked) [CBK264729] | 99.7 |  |
| N=C(N)NCCCc1c[nH]c2ccccc12 [CBK012139G] | 101 |  |
| Cc1ccc2[nH]c3c(c2c1)CCNC31CCN(C(=O)Nc2c(C)noc2C)CC1 [CBK047071] | 83.1 |  |
| CCc1c(C)nc(SC(C(=O)O)c2ccccc2)c(C#N)c1C (centres unmarked) [CBK270174] | 94.9 |  |
| COc1cccc(-n2c(=O)[nH]c3c(C(N)=O)nc(-c4ccccc4)nc32)c1 [CBK287740] | 121 |  |
| COC(=O)CCc1ccc(S(=O)(=O)N2CCCN(Cc3cc(Cl)cc(Cl)c3)CC2)cc1 [CBK062982] | 97.2 |  |
| Cc1ncc(CN(C)C(=O)Nc2cccc(C(=O)N3CCOCC3)c2)s1 [CBK305984] | 92.2 |  |
| COc1ccc(NC(=O)N[C@H]2C[C@H]3C(=O)N[C@H](Cc4ccccc4)C(=O)N3C2)cc1 [CBK289227] | 84.7 |  |
| Cn1cccc1C(=O)N1CCC(Cc2ccccc2)CC1 [CBK200182] | 102 |  |
| COCCc1noc(C(C)NC(=O)Cc2cccc(O)c2)n1 (centres unmarked) [CBK307493] | 99.5 |  |
| O=C(O)c1ccc(N2C(=O)CC(N3CCN(CCO)CC3)C2=O)cc1 (centres unmarked) [CBK271638] | 88.9 |  |
| Cc1nc(-c2ccc(N3CC(C(N)=O)CCC3C)nc2)[nH]c(=O)c1C (centres unmarked) [CBK306463] | 83.9 |  |
| O=S(=O)(c1cccc(S(=O)(=O)N2CCOCC2)c1)c1ccc(Cl)c(S(=O)(=O)N2CCOCC2)c1 [CBK261260] | 104 |  |
| O=[N+]([O-])c1ccc(CNCCc2c[nH]c3ccccc23)cc1 [CBK262275] | 80.4 |  |

| SMILES | viability at 28.5 h, 10 µM [%] | viability at 28.5 h, 10 µM (bulk resorufin, single well) [%] |
| --- | --- | --- |
| CC12CCC(=O)N1CCCN2Cc1cnn(-c2ccc(F)cc2)c1 (centres unmarked) [CBK281819] | 94.2 |  |
| Nc1nc(OCc2ccncc2)cnc1-c1cnn(Cc2ccccc2)c1 [CBK145194] | 96.7 |  |
| CS(=O)(=O)N(CC(=O)Nc1ccccc1C(=O)N1CCCC1)c1cc(Cl)c(Cl)cc1Cl [CBK268826] | 106 |  |
| CC(NS(=O)(=O)c1ccc(Cl)cc1)C(=O)Nc1ccccc1Sc1ccccc1 (centres unmarked) [CBK266984] | 98.4 |  |
| COc1ccc(C(=O)N2CCC3(CCCN(C(=O)c4ccc5[nH]c(=O)[nH]c5c4)C3)C2)cc1OC (centres unmarked) [CBK137086] | 98.5 |  |
| COc1ccc(C2(C(=O)NCCN3CCCC3)CC2)cc1 [CBK149824] | 95.6 |  |
| COc1cccc(CN2CCC(c3ncc(C(=O)Nc4ccc(F)cc4)c(C)n3)CC2)c1 [CBK285630] | 89.8 |  |
| COc1ccc(Nc2cc(-c3cc4ccccc4o3)ncn2)c(C)c1 [CBK091040] | 87.7 |  |
| CCCn1cnc2cc(NC(=O)C3CCN(S(=O)(=O)c4ccc(F)cc4)C3)ccc21 (centres unmarked) [CBK285704] | 85.8 |  |
| O=C(Cc1cccs1)N1CCC(c2nnc(-c3ccccc3)c(-c3ccccc3)n2)CC1 [CBK286283] | 98.8 |  |
| N=c1n(CC(=O)c2ccc(-c3ccccc3)cc2)c2ccccc2n1Cc1ccccc1 [CBK262128B] | 99.3 |  |
| CC(C)(C)c1cc(C(=O)Nc2ccncc2)n(Cc2ccc(Cl)cc2Cl)n1 [CBK107284] | 107 |  |
| CCN(CC)C(=O)CN1C2CCC1CC(O)(c1ccco1)C2 (centres unmarked) [CBK284094] | 106 |  |
| Cc1nc2c(c(=O)n1C)CN(Cc1cc(=O)n3cccc(O)c3n1)C2 [CBK306991] | 78.8 |  |
| CCCCN(C)S(=O)(=O)NCCc1cn2ccccc2n1 [CBK304543] | 101 |  |
| Cc1ccc(OCc2nnc(SCC(=O)O)n2N)cc1 [CBK266603] | 95.8 |  |
| CC(C)(C)N1C(=O)c2ccc(C(=O)Nc3ccccc3C(=O)O)cc2C1=O [CBK287004] | 112 |  |
| Oc1c(Br)cc2oc3c(c2c1CNc1ccccc1)CCCC3 [CBK160397] | 103 |  |
| Cc1ccc(Cn2nc(NC(=O)C3CCCCC3)c3ccccc32)cc1 [CBK048217] | 96.5 |  |
| Cc1ccc(NS(=O)(=O)c2cc(C(=O)N3CCN(C)CC3)ccc2C)cc1C [CBK269268] | 91.2 |  |
